Data from PMC10743086, “Immunofluorescence-Based Assay for High-Throughput Analysis of Multidrug Resistance Markers in Non-Small Cell Lung Carcinoma Patient-Derived Cells” (Diagnostics, 2023).

What was measured:
Format in all cases: cell-based, human
[1] = tested on: Cancer cells (CK8/18+) of patient-derived NSCLC cultures; test: Cytotoxicity in patient-derived NSCLC cultures, cancer cells; conditions: Homo sapiens, 168 h, 7 days treatment
Outline: (§1)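 Primary NSCLC cultures from surgically resected tumours, enzymatically dissociated, grown in supplemented DMEM/Ham's F12, seeded 1000 cells/well and drug-treated 72 h later for 7 days. PFA-fixed cells co-immunostained for CK8/18 (separating cancer from stromal cells) and ABCB1, ABCC1 or ABCG2.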

[2] = tested on: ABCG2 expression in cancer cells (CK8/18+); test: Immunofluorescence assay of ABCG2 expression in patient-derived NSCLC cultures; conditions: 7 days
Outline: as §1

[3] = tested on: ABCC1 expression in cancer cells (CK8/18+); test: Immunofluorescence assay of ABCC1 expression in patient-derived NSCLC cultures; conditions: 7 days
Outline: as §1

[4] = tested on: Non-cancer cells (CK8/18-) of patient-derived NSCLC cultures; test: Cytotoxicity in patient-derived NSCLC cultures, non-cancer cells; conditions: Homo sapiens, 168 h, 7 days treatment
Outline: as §1

[5] = tested on: ABCB1 expression in NCI-H460 cells; test: Immunofluorescence assay of MDR marker ABCB1 expression; conditions: five concentrations, 24 h
Outline: (§2)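 Compounds added 48 h after seeding, then 24 h exposure. Cells fixed in 4% paraformaldehyde, BSA-blocked, co-stained for ABCB1 with CK8/18 to separate cancer from stromal cells; 4x automated imaging. Cytotoxicity from cell-count scoring; ABCB1 expression from multi-wavelength cell scoring.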

[6] = tested on: ABCB1 expression in NCI-H460/R cells; test: as above; conditions: five concentrations, 24 h
Outline: as §2

[7] = tested on: ABCB1 expression in MRC-5 cells; test: as above; conditions: five concentrations, 24 h
Outline: as §2

NCI-H460/R cells = test: Cytotoxicity by immunofluorescence cell scoring (cell counts), multidrug-resistant NSCLC cell line; conditions: Homo sapiens, 24 h treatment
Outline: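 ABCB1-overexpressing NCI-H460/R cells, doxorubicin-selected, treated 48 h after seeding for 24 h. Cytotoxicity from automated imaging cell counts after fixation and CK8/18 plus MDR-marker immunostaining, using cell-scoring analysis.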

[8] = culture TR58, cancer cells (CK8/18+)
[9] = culture TR64, cancer cells (CK8/18+)
[10] = culture TR65, cancer cells (CK8/18+)
[11] = culture TR84, cancer cells (CK8/18+)
[12] = culture TR87, cancer cells (CK8/18+)
[13] = culture TR58, non-cancer cells (CK8/18-)
[14] = culture TR64, non-cancer cells (CK8/18-)
[15] = culture TR65, non-cancer cells (CK8/18-)
[16] = culture TR84, non-cancer cells (CK8/18-)
[17] = culture TR87, non-cancer cells (CK8/18-)
[18] = NCI-H460 (co-culture with MRC-5)
[19] = NCI-H460/R (co-culture with MRC-5)
[20] = MRC-5 (co-culture with NCI-H460)
[21] = MRC-5 (co-culture with NCI-H460/R)

SMILES | IC50 [1, 8] | IC50 [1, 9] | IC50 [1, 10] | IC50 [1, 11] | IC50 [1, 12] | ABCG2 expression [2, 8] | ABCG2 expression [2, 9] | ABCG2 expression [2, 10] | ABCG2 expression [2, 11] | ABCG2 expression [2, 12] | ABCC1 expression [3, 8] | ABCC1 expression [3, 9] | ABCC1 expression [3, 10] | ABCC1 expression [3, 11] | ABCC1 expression [3, 12] | IC50 [4, 13] | IC50 [4, 14] | IC50 [4, 15] | IC50 [4, 16] | IC50 [4, 17] | also measured
Nc1ccn([C@@H]2O[C@H](CO)[C@@H](O)C2(F)F)c(=O)n1 [Gemcitabine, gemcitabine] | 2.55 µM | 4.92 µM | 4.91 µM | 2.68 µM | 3.41 µM | increase (An increase in ABCB1, ABCC1, or ABCG2 expression of at least 20% at a minimum of one concentration is shown in the table.) | increase (An increase in ABCB1, ABCC1, or ABCG2 expression of at least 20% at a minimum of one concentration is shown in the table.) | increase (An increase in ABCB1, ABCC1, or ABCG2 expression of at least 20% at a minimum of one concentration is shown in the table.) | increase (An increase in ABCB1, ABCC1, or ABCG2 expression of at least 20% at a minimum of one concentration is shown in the table.) | increase (An increase in ABCB1, ABCC1, or ABCG2 expression of at least 20% at a minimum of one concentration is shown in the table.) | no change | increase (An increase in ABCB1, ABCC1, or ABCG2 expression of at least 20% at a minimum of one concentration is shown in the table.) | increase (An increase in ABCB1, ABCC1, or ABCG2 expression of at least 20% at a minimum of one concentration is shown in the table.) | increase (An increase in ABCB1, ABCC1, or ABCG2 expression of at least 20% at a minimum of one concentration is shown in the table.) | increase (An increase in ABCB1, ABCC1, or ABCG2 expression of at least 20% at a minimum of one concentration is shown in the table.) | 3.07 µM | 7.06 µM | 0.351 µM | 0.491 µM | 1.13 µM | ABCB1 Expression [5, 18]: no change; ABCB1 Expression ([5]; NCI-H460 monoculture): no change; ABCB1 Expression [6, 19]: no change; ABCB1 Expression ([6]; NCI-H460/R monoculture): no change; ABCB1 Expression [7, 20]: no change; ABCB1 Expression [7, 21]: no change; ABCB1 Expression ([7]; MRC-5 monoculture): no change; IC50 (NCI-H460/R cells; [19]): 29.4 µM; IC50 (NCI-H460/R cells; NCI-H460/R monoculture): 33.6 µM
CC(=O)O[C@H]1C(=O)[C@@]2(C)[C@H]([C@H](OC(=O)c3ccccc3)[C@]3(O)C[C@H](OC(=O)[C@H](O)[C@@H](NC(=O)c4ccccc4)c4ccccc4)C(C)=C1C3(C)C)[C@]1(OC(C)=O)CO[C@@H]1C[C@@H]2O [Paclitaxel, paclitaxel] | 1.18 µM | 1.35 µM | 1.18 µM | 2.57 µM | 4.79 µM | increase (An increase in ABCB1, ABCC1, or ABCG2 expression of at least 20% at a minimum of one concentration is shown in the table.) | increase (An increase in ABCB1, ABCC1, or ABCG2 expression of at least 20% at a minimum of one concentration is shown in the table.) | increase (An increase in ABCB1, ABCC1, or ABCG2 expression of at least 20% at a minimum of one concentration is shown in the table.) | increase (An increase in ABCB1, ABCC1, or ABCG2 expression of at least 20% at a minimum of one concentration is shown in the table.) | increase (An increase in ABCB1, ABCC1, or ABCG2 expression of at least 20% at a minimum of one concentration is shown in the table.) | no change | increase (An increase in ABCB1, ABCC1, or ABCG2 expression of at least 20% at a minimum of one concentration is shown in the table.) | increase (An increase in ABCB1, ABCC1, or ABCG2 expression of at least 20% at a minimum of one concentration is shown in the table.) | increase (An increase in ABCB1, ABCC1, or ABCG2 expression of at least 20% at a minimum of one concentration is shown in the table.) | increase (An increase in ABCB1, ABCC1, or ABCG2 expression of at least 20% at a minimum of one concentration is shown in the table.) | 1.4 µM | 1.95 µM | 1.4 µM | 0.312 µM | 1.87 µM | ABCB1 Expression [5, 18]: increase (An increase in ABCB1 expression of at least 20% at a minimum of one concentration is shown in the table.); ABCB1 Expression ([5]; NCI-H460 monoculture): increase (An increase in ABCB1 expression of at least 20% at a minimum of one concentration is shown in the table.); ABCB1 Expression [6, 19]: no change; ABCB1 Expression ([6]; NCI-H460/R monoculture): no change; ABCB1 Expression [7, 20]: no change; ABCB1 Expression [7, 21]: no change; ABCB1 Expression ([7]; MRC-5 monoculture): no change; IC50 (NCI-H460/R cells; [19]): > 5 µM; IC50 (NCI-H460/R cells; NCI-H460/R monoculture): > 5 µM
Nc1nc2[nH]cc(CCc3ccc(C(=O)N[C@@H](CCC(=O)O)C(=O)O)cc3)c2c(=O)[nH]1 [Pemetrexed, pemetrexed] | 181 µM | 252 µM | 231 µM | > 300 µM | > 300 µM | no change | no change | no change | increase (An increase in ABCB1, ABCC1, or ABCG2 expression of at least 20% at a minimum of one concentration is shown in the table.) | no change | no change | no change | increase (An increase in ABCB1, ABCC1, or ABCG2 expression of at least 20% at a minimum of one concentration is shown in the table.) | increase (An increase in ABCB1, ABCC1, or ABCG2 expression of at least 20% at a minimum of one concentration is shown in the table.) | increase (An increase in ABCB1, ABCC1, or ABCG2 expression of at least 20% at a minimum of one concentration is shown in the table.) | > 300 µM | > 300 µM | 25.2 µM | > 300 µM | > 300 µM | ABCB1 Expression [5, 18]: no change; ABCB1 Expression ([5]; NCI-H460 monoculture): no change; ABCB1 Expression [6, 19]: no change; ABCB1 Expression ([6]; NCI-H460/R monoculture): no change; ABCB1 Expression [7, 20]: no change; ABCB1 Expression [7, 21]: no change; ABCB1 Expression ([7]; MRC-5 monoculture): no change; IC50 (NCI-H460/R cells; [19]): > 300 µM; IC50 (NCI-H460/R cells; NCI-H460/R monoculture): > 300 µM
